In ChEMBL document CHEMBL1833878, “Cyclodepsipeptides, sesquiterpenoids, and other cytotoxic metabolites from the filamentous fungus Trichothecium sp. (MSX 51320)” (J Nat Prod, 2011):
pEC50, pIC50: −log10 of the molar value. In brackets after ≈: the same amount, converted by molar mass. *1 amine or outer side, *2 acyl side, *3 side chain or, on linkers, in order; H or OH if unused. Where a SMILES comes first, the peptide text is derived from it. [ ]: non-standard residue; d: D form. X1 = CC(C)(O)[C@H](O[*:1])C(=O)[*:2]; dNMeF = CN[C@H](Cc1ccccc1)C(=O)O; Hica(2S) = CC(C)C[C@H](O)C(=O)O; NMeL = CN[C@@H](CC(C)C)C(=O)O; Hiv = CC(C)[C@H](O)C(=O)O; NMeA = CN[C@@H](C)C(=O)O

Assays:
[1] = system: Staphylococcus epidermidis; test: Antibacterial activity against Staphylococcus epidermidis; format: functional
[2] = system: Enterococcus durans; test: Antibacterial activity against Enterococcus durans; format: functional
[3] = system: MCF7; test: Cytotoxicity against human MCF7 cells; format: functional, cell-based
[4] = system: NCI-H460; test: Cytotoxicity against human NCI-H460 cells; format: functional, cell-based
[5] = system: SF-268; test: Cytotoxicity against human SF268 cells; format: functional, cell-based
[6] = Cytotoxicity against human HTB-177 cells; format: functional, cell-based
[7] = system: HT-29; test: Cytotoxicity against human HT-29 cells; format: functional, cell-based
[8] = Cytotoxicity against human HTB-38 cells; format: functional, cell-based
[9] = system: MDA-MB-435; test: Cytotoxicity against human MDA-MB-435 cells; format: functional, cell-based
[10] = Cytotoxicity against human HTB-129 cells; format: functional, cell-based

Row | MIC [1] | MIC [2] | Structure (SMILES) | pEC50 [3] | pEC50 [4] | pEC50 [5] | pIC50 [3] | pIC50 [4] | pIC50 [5] | pIC50 [6] | pIC50 [7] | pIC50 [8] | pIC50 [9] | pIC50 [10]
1 | 100 µg/mL (≈ 162 µM) | 100 µg/mL (≈ 162 µM) | CC(C)C[C@@H]1OC(=O)[C@H](C)NC(=O)[C@H](C(C)(C)O)OC(=O)[C@H](C)N(C)C(=O)[C@@H](C)NC(=O)[C@@H](Cc2ccccc2)N(C)C1=O [GUANGOMIDE A] (cyclo(A[Hica(2S)][dNMeF][dA][NMeA][X1])) | 4.82 | 4.82 | 4.82 |  |  |  |  |  |  |  | 
2 |  |  | C/C=C\C(=O)O[C@@H]1CC2O[C@@H]3C=C(C)[C@@H](O)C4OCC2(O)[C@@]1(C)[C@]43C (some centres undefined) |  |  |  | < 5.00 | < 5.00 | < 5.00 | < 5.00 |  |  |  | 
3 |  |  | CC(C)C[C@@H]1OC(=O)[C@H](C(C)C)OC(=O)[C@H](CO)NC(=O)[C@H](C(C)C)NC(=O)[C@H](CC(C)C)N(C)C(=O)[C@H](Cc2ccccc2)NC1=O [TRICHODEPSIPEPTIDE B] (cyclo(F[NMeL]VS[Hiv][Hica(2S)])) |  |  |  | < 5.00 | < 5.00 | < 5.00 | < 5.00 | < 5.00 | < 5.00 | < 5.00 | < 5.00
4 |  |  | COC(=O)[C@@H]1O[C@@H](O)C(=O)[C@]2(C(O)/C=C(C)/C=C/C=C(\C)CCC=C(C)C)O[C@H]12 (some centres undefined) [TRICHOTHOSPORON A] |  |  |  | < 5.00 | < 5.00 | < 5.00 | < 5.00 |  |  |  | 
5 |  |  | CC(C)C[C@@H]1NC(=O)[C@H](CC(C)C)N(C)C(=O)[C@H](Cc2ccccc2)NC(=O)[C@H](CC(C)C)OC(=O)[C@H](C(C)C)OC(=O)[C@H](CO)NC1=O [TRICHODEPSIPEPTIDE] (cyclo(F[NMeL]LS[Hiv][Hica(2S)])) |  |  |  | < 5.00 | < 5.00 | < 5.00 | < 5.00 | < 5.00 | < 5.00 | < 5.00 | < 5.00
